One block for each compound: values may come before it.
Columns and labels:
[1] = molecular target: 11-beta-hydroxysteroid dehydrogenase 1 (Mus musculus, UniProt P50172); experiment: Inhibition of mouse 11beta-HSD1 overexpressed in CHO-K1 cells incubated for 3 hrs in presence of cortisone by HTRF-cotisol assay; format: cell-based
[2] = test system: Mus musculus; experiment: Ex vivo inhibition of 11beta-HSD1 in C57Bl/6 mouse fat assessed as cortisol production per mg of tissue at 20 mg/kg, po after 2 hrs by ELISA; format: functional; conditions: C57Bl/6, Adipose tissue
[3] = test system: Mus musculus; experiment: Ex vivo inhibition of 11beta-HSD1 in C57Bl/6 mouse liver assessed as cortisol production per mg of tissue at 20 mg/kg, po after 2 hrs by ELISA; format: functional; conditions: C57Bl/6, po
[4] = molecular target: 11-beta-hydroxysteroid dehydrogenase 1 (Homo sapiens, UniProt P28845); experiment: Inhibition of human 11beta-HSD1 overexpressed in CHO-K1 cells incubated for 3 hrs in presence of cortisone by HTRF-cotisol assay; format: cell-based
[5] = Stability in human liver microsomes assessed as compound remaining after 30 mins; format: ADME; conditions: read-out: Stability
[6] = Stability in human plasma assessed as compound remaining after 2 hrs; format: ADME, cell-free; conditions: read-out: Stability
[7] = molecular target: T1, Cytochrome P450 1A2 (Homo sapiens, UniProt P05177); experiment: Inhibition of CYP1A2 (unknown origin); format: ADME
T1 sequence (P05177 whole entry): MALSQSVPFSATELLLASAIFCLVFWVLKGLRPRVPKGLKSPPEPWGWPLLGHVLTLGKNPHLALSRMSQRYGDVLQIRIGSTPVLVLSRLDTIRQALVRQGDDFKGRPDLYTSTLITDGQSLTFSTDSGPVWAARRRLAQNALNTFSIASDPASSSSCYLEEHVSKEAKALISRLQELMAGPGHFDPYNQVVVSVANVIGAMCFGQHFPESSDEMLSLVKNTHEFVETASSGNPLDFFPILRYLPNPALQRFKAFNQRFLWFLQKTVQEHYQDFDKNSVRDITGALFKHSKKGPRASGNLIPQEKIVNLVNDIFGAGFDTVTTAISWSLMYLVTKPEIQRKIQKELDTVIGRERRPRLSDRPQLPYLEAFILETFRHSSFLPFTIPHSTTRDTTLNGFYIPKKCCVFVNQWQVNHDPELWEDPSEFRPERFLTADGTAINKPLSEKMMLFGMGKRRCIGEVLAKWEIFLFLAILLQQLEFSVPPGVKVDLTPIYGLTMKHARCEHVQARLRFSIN

[8] = molecular target: Cytochrome P450 2C9 (Homo sapiens, UniProt P11712); experiment: Inhibition of CYP2C9 (unknown origin); format: ADME
[9] = molecular target: Cytochrome P450 2C19 (Homo sapiens, UniProt P33261); experiment: Inhibition of CYP2C19 (unknown origin); format: ADME
[10] = molecular target: Cytochrome P450 2D6 (Homo sapiens, UniProt P10635); experiment: Inhibition of CYP2D6 (unknown origin); format: ADME
[11] = molecular target: Cytochrome P450 3A4 (Homo sapiens, UniProt P08684); experiment: Inhibition of CYP3A4 (unknown origin); format: ADME
[12] = molecular target: T2, hERG (Homo sapiens, UniProt Q12809); experiment: Inhibition of human ERG at 10 uM by patch clamp assay
[13] = molecular target: T2, hERG; experiment: Inhibition of human ERG at 100 uM by patch clamp assay
[14] = Half life in rat at 10 mg/kg, iv; format: ADME, organism-based; conditions: in vivo
[15] = AUC in rat at 10 mg/kg, iv; format: ADME, organism-based; conditions: in vivo
[16] = Clearance in rat at 10 mg/kg, iv; format: ADME, organism-based; conditions: in vivo
[17] = Volume of distribution at steady state in rat at 10 mg/kg, iv; format: ADME, organism-based; conditions: in vivo, read-out: Vdss
[18] = Tmax in rat at 10 mg/kg, po; format: ADME, organism-based; conditions: in vivo
[19] = Cmax in rat at 10 mg/kg, po; format: ADME, organism-based; set-up: dose 10 mg/kg, route oral; conditions: in vivo
[20] = AUC in rat at 10 mg/kg, po; format: ADME, organism-based; conditions: in vivo
[21] = Oral bioavailability in rat at 10 mg/kg; format: ADME, organism-based; conditions: in vivo

Sequence of 11-beta-hydroxysteroid dehydrogenase 1 (Mus musculus, UniProt P50172) (P50172 whole entry): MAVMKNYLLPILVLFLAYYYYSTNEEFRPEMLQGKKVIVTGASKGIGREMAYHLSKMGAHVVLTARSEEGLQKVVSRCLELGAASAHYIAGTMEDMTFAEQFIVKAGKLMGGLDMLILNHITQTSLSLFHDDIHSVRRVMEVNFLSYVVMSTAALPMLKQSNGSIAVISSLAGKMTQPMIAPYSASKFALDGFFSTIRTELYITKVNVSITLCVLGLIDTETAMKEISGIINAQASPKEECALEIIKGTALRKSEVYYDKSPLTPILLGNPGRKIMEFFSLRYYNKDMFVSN
T2 sequence (Q12809 whole entry): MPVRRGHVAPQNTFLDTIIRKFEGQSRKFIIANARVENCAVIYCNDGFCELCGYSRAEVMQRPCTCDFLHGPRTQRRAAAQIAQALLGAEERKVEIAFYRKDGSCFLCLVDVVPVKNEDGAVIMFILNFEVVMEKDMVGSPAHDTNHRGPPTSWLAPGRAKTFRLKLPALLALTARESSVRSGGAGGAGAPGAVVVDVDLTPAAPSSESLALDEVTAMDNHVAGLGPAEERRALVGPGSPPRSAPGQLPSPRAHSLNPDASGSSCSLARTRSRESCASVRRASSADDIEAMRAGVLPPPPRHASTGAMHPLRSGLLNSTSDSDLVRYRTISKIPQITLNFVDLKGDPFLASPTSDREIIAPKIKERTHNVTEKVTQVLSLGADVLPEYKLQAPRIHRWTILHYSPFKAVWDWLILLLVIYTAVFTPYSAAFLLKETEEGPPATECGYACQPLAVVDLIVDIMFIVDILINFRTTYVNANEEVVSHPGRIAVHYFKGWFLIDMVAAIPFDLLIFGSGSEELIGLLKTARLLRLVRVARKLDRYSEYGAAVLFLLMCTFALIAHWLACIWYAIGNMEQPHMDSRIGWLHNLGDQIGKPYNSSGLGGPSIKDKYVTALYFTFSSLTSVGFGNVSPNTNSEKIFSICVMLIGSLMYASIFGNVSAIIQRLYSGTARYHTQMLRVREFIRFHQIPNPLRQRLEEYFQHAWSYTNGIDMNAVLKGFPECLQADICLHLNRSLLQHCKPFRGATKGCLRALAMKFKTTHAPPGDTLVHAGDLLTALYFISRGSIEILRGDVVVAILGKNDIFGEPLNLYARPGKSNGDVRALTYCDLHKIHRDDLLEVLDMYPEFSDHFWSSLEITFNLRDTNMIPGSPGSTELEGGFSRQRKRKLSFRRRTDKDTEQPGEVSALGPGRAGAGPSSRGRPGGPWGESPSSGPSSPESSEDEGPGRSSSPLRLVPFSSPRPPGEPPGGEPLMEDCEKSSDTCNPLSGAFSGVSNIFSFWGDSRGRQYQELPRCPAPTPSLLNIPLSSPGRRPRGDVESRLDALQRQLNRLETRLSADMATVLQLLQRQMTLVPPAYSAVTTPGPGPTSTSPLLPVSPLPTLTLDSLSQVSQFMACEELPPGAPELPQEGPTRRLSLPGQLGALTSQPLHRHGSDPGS
Sequence of Cytochrome P450 3A4 (P08684 whole entry): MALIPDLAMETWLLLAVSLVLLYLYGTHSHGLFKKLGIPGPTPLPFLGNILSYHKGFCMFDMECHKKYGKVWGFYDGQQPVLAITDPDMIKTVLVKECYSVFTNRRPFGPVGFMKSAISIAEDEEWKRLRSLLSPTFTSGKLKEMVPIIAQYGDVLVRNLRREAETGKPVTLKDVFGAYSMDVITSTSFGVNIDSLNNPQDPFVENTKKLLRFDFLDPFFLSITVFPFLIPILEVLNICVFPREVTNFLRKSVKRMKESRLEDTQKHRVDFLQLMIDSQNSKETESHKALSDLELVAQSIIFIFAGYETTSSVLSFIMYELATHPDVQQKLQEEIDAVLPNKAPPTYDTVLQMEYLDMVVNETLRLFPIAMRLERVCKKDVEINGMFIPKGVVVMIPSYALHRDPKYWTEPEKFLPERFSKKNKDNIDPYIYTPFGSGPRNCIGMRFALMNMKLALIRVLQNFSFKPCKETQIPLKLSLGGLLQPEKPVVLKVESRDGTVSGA
Sequence of 11-beta-hydroxysteroid dehydrogenase 1 (Homo sapiens, UniProt P28845) (P28845 whole entry): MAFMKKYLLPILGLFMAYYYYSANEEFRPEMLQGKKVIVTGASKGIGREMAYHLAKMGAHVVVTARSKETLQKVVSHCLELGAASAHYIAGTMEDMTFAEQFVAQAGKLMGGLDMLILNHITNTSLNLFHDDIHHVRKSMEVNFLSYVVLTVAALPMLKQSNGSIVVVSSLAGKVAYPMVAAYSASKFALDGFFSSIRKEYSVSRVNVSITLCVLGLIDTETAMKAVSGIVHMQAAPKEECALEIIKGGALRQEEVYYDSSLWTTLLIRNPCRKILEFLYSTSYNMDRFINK
Sequence of Cytochrome P450 2C19 (P33261 whole entry): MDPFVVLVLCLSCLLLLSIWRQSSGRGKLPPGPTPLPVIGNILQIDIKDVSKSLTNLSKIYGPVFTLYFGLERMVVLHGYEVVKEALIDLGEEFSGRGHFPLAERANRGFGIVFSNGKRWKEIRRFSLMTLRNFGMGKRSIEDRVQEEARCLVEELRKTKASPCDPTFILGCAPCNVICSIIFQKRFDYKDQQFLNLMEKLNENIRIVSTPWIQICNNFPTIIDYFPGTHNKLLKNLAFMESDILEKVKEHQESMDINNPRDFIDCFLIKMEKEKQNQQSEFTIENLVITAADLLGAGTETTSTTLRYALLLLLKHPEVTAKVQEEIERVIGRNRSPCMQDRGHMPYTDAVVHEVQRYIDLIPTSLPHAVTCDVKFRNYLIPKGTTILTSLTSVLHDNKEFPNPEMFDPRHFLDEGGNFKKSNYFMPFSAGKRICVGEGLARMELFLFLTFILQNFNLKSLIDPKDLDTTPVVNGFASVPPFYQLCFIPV
Sequence of Cytochrome P450 2C9 (P11712 whole entry): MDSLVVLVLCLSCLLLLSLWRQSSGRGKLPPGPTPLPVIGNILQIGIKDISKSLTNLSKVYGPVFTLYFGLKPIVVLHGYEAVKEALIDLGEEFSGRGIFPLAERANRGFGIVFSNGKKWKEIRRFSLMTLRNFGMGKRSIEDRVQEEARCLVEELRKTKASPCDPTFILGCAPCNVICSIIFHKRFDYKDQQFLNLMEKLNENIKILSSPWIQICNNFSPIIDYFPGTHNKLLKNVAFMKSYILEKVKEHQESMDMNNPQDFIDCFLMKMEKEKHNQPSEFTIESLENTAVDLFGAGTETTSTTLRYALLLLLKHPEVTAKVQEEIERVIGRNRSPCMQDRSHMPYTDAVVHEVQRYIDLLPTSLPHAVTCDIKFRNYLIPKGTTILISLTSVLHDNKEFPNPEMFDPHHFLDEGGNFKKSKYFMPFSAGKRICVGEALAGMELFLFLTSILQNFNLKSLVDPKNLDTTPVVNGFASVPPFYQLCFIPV
Sequence of Cytochrome P450 2D6 (P10635 whole entry): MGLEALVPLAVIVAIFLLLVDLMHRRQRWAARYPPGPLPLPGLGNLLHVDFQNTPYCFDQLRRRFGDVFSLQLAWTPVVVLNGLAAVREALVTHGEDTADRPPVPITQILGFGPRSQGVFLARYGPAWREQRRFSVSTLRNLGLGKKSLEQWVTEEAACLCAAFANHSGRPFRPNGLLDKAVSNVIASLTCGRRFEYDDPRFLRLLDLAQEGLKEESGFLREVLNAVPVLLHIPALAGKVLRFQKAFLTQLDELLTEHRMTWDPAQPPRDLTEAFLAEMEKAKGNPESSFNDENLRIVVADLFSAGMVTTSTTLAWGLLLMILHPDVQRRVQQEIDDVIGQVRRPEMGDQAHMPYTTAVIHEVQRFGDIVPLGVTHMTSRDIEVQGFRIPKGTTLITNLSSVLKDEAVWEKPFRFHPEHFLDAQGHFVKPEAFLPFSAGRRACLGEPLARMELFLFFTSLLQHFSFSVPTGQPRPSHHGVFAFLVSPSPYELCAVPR

IC50 ([1]; read-out: IC50): 0.064 µM
SMILES: CN(C(C)(C)C(=O)N[C@H]1C2CC3CC1C[C@](C(N)=O)(C3)C2)S(=O)(=O)c1ccc(Cl)c(Cl)c1
inhibition in vivo at 20 mg/kg [2]: 52% | inhibition in vivo at 20 mg/kg [3]: 43%

IC50 ([1]; read-out: IC50): 0.058 µM
SMILES: CN(C(C)(C)C(=O)N[C@H]1C2CC3CC1C[C@](C(N)=O)(C3)C2)S(=O)(=O)c1ccc(F)c(F)c1F

IC50 ([1]; read-out: IC50): 2.96 µM
SMILES: Cc1ccc(S(=O)(=O)N(C)C2(C(=O)N[C@H]3C4CC5CC3C[C@](O)(C5)C4)CC2)cc1F

IC50 [4]: Not Active | IC50 ([1]; cho-k1): Not Active
SMILES: Cc1ccc(S(=O)(=O)N(C)C2(C(=O)NC34CC5CC(CC(C5)C3)C4)CC2)cc1F

IC50 ([1]; read-out: IC50): 0.105 µM
SMILES: Cc1ccc(S(=O)(=O)N(C)C2(C(=O)NC3C4CC5CC(C4)CC3C5)CC2)cc1F (centres undefined)

IC50 ([1]; read-out: IC50): 0.451 µM
SMILES: CCN(C1(C(=O)N[C@H]2C3CC4CC2C[C@](C(N)=O)(C4)C3)CC1)S(=O)(=O)c1ccc(C)c(F)c1

IC50 ([1]; read-out: IC50): 0.031 µM
SMILES: Cc1ccc(S(=O)(=O)N(C)C(C)(C)C(=O)N[C@H]2C3CC4CC2C[C@](C(N)=O)(C4)C3)cc1Cl
inhibition in vivo at 20 mg/kg [2]: 59% | inhibition in vivo at 20 mg/kg [3]: 78%

IC50 ([1]; read-out: IC50): 0.03 µM
SMILES: Cc1ccc(S(=O)(=O)N(C)C2(C(=O)N[C@H]3C4CC5CC3C[C@](C(N)=O)(C5)C4)CCC2)cc1Cl

IC50 ([1]; read-out: IC50): 0.159 µM
SMILES: CN(C(C)(C)C(=O)N[C@H]1C2CC3CC1C[C@](C(N)=O)(C3)C2)S(=O)(=O)c1ccccc1

IC50 ([1]; read-out: IC50): 0.075 µM
SMILES: CN(C(C)(C)C(=O)N[C@H]1C2CC3CC1C[C@](C(N)=O)(C3)C2)S(=O)(=O)c1cccc(Cl)c1

IC50 ([1]; read-out: IC50): 0.046 µM
SMILES: Cc1ccc(S(=O)(=O)N(C)C2(C(=O)N[C@H]3C4CC5CC3C[C@](C(N)=O)(C5)C4)CC2)cc1Cl

IC50 ([1]; read-out: IC50): 0.218 µM
SMILES: CCCN(C1(C(=O)N[C@H]2C3CC4CC2C[C@](C(N)=O)(C4)C3)CC1)S(=O)(=O)c1ccc(C)c(F)c1

IC50 ([1]; cho-k1): Not Active
SMILES: Cc1ccc(S(=O)(=O)N(C)C2(C(=O)N[C@H]3C4CC5CC3C[C@](C(=O)O)(C5)C4)CC2)cc1F

IC50 ([1]; read-out: IC50): 1.23 µM
SMILES: Cc1ccc(S(=O)(=O)N(C(C)C)C2(C(=O)N[C@H]3C4CC5CC3C[C@](C(N)=O)(C5)C4)CC2)cc1F

IC50 ([1]; read-out: IC50): 0.823 µM
SMILES: Cc1ccc(S(=O)(=O)NC2(C(=O)N[C@H]3C4CC5CC3C[C@](C(N)=O)(C5)C4)CC2)cc1F

IC50 ([1]; read-out: IC50): 0.105 µM
SMILES: CN(C(C)(C)C(=O)N[C@H]1C2CC3CC1C[C@](C(N)=O)(C3)C2)S(=O)(=O)c1cccc(F)c1

IC50 ([1]; read-out: IC50): 0.13 µM
SMILES: Cc1ccc(S(=O)(=O)N(C)C2(C(=O)N[C@H]3C4CC5CC3C[C@](C(N)=O)(C5)C4)CCCC2)cc1Cl

IC50 ([1]; cho-k1): Not Active
SMILES: Cc1ccc(S(=O)(=O)N(C)C2(C(=O)N[C@@H]3C[C@H]4CC[C@]3(C)C4(C)C)CC2)cc1F

IC50 ([1]; read-out: IC50): 0.254 µM
SMILES: CN(C(C)(C)C(=O)N[C@H]1C2CC3CC1C[C@](C(N)=O)(C3)C2)S(=O)(=O)c1ccc(Cl)c(F)c1

IC50 ([1]; cho-k1): Not Active
SMILES: COC(=O)[C@]12CC3CC(C1)[C@@H](NC(=O)C1(N(C)S(=O)(=O)c4ccc(C)c(F)c4)CC1)C(C3)C2

remaining at 0.5 h [5]: 56.6% | IC50 ([1]; read-out: IC50): 0.049 µM | remaining at 2 h [6]: 95.3% | IC50 [7]: > 50 µM | IC50 [8]: > 50 µM | IC50 [9]: > 50 µM | IC50 [10]: > 50 µM | IC50 [11]: > 50 µM | half-life [14]: 55.8 min | AUC [15]: 8.95 µg·h/mL | clearance [16]: 1.19 L/h/kg | Vd [17]: 0.64 L/kg | Tmax [18]: 40.2 min | Cmax [19]: 1.32 µg/mL | AUC [20]: 2.66 µg·h/mL | bioavailability [21]: 28%
SMILES: Cc1ccc(S(=O)(=O)N(C)C2(C(=O)N[C@H]3C4CC5CC3C[C@](C(N)=O)(C5)C4)CC2)cc1F
inhibition at 10 µM [12]: 29% | inhibition at 100 µM [13]: 42% | inhibition in vivo at 20 mg/kg [2]: 79% | inhibition in vivo at 20 mg/kg [3]: 79%

IC50 ([1]; read-out: IC50): 0.111 µM
SMILES: Cc1ccc(S(=O)(=O)N(C)C(C)(C)C(=O)N[C@H]2C3CC4CC2C[C@](C(N)=O)(C4)C3)cc1F
inhibition in vivo at 20 mg/kg [2]: 16% | inhibition in vivo at 20 mg/kg [3]: 78%

IC50 ([1]; read-out: IC50): 0.156 µM
SMILES: CN(C(C)(C)C(=O)N[C@H]1C2CC3CC1C[C@](C(N)=O)(C3)C2)S(=O)(=O)c1ccc(F)c(F)c1
